Assays:
Lck = target: T1, Lck (Homo sapiens, UniProt P06239); test: Upstate KinaseProfiler radio-enzymatic filter binding assay, Lck; assay type: biochemical; conditions: at a concentration of 10 μM; read-out: percentage inhibition of Lck
T1 construct: purchased Upstate (KinaseProfiler panel)
Method: (§1) Compounds of the invention are assessed for their ability to inhibit individual members of a panel of kinases (a partial, non-limiting list of kinases includes: BMX, CSK, TrkB, FGFR3, Fes, Lck, B-RAF, C-RAF, MKK6, SAPK2α and SAPK2β). The compounds are tested in duplicates at a final concentration of 10 μM following this generic protocol. Note that the kinase buffer composition and the substrates vary for the different kinases included in the “Upstate KinaseProfiler™” panel. Kinase buffer (2.5 μL, 10×—containing MnCl2 when required), active kinase (0.001-0.01 Units; 2.5 μL), specific or Poly(Glu4-Tyr) peptide (5-500 μM or 0.01 mg/ml) in kinase buffer and kinase buffer (50 μM; 5 μL) are mixed in an eppendorf on ice. […] The assay squares are transferred to a scintillation vial, 5 ml scintillation cocktail are added and ^32P incorporation (cpm) to the peptide substrate is quantified with a Beckman scintillation counter. Percentage inhibition is calculated for each reaction.

T315I BCR-Abl = target: T2, T315I BCR-Abl (Homo sapiens, UniProt P00519, T315I); test: Antiproliferative effect on Ba/F3 cells expressing T315I BCR-Abl; assay type: cell-based; conditions: Ba/F3 cells expressing T315I mutant
T2 construct: expressed in transfected cells; host or cells: Ba/F3; the other entry of the earlier key: BCR (P11274, Breakpoint cluster region protein)
T2 sequence (P00519 229-512 T315I limits assumed): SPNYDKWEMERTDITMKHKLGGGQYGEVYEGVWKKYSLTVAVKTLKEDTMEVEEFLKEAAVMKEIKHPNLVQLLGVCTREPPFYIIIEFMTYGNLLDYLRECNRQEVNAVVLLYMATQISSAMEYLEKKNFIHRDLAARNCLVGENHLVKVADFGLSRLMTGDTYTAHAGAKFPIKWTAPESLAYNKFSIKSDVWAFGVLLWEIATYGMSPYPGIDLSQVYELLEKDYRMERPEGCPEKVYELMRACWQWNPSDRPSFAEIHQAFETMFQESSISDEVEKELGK
Method: (§2) 32D-p210 cells are plated into 96 well TC plates at a density of 15,000 cells per well. 50 μL of two fold serial dilutions of the test compound (Cmax is 40 μM) are added to each well (STI571 is included as a positive control). After incubating the cells for 48 hours at 37° C., 5% CO2, 15 μL of MTT (Promega) is added to each well and the cells are incubated for an additional 5 hours. The optical density at 570 nm is quantified spectrophotometrically and IC50 values, the concentration of compound required for 50% inhibition, determined from a dose response curve.
(§3) Compounds of the invention are tested for their antiproliferative effect on Ba/F3 cells expressing either wild type or the mutant forms of BCR-Abl (G250E, E255V, T315I, F317L, M351T) that confers resistance or diminished sensitivity to STI571. The antiproliferative effect of these compounds on the mutant-BCR-Abl expressing cells and on the non transformed cells were tested at 10, 3.3, 1.1 and 0.37 μM as described above (in media lacking IL3). The IC50 values of the compounds lacking toxicity on the untransformed cells were determined from the dose response curves obtained as describe above.

SAPK2β = target: T3, SAPK2β (Homo sapiens, UniProt Q15759); test: Upstate KinaseProfiler radio-enzymatic filter binding assay, SAPK2β; assay type: biochemical; conditions: at a concentration of 10 μM; read-out: percentage inhibition of SAPK2β
T3 construct: purchased Upstate (KinaseProfiler panel)
Method: as §1

TrkB = target: T4, TrkB (Homo sapiens, UniProt Q16620); test: Upstate KinaseProfiler radio-enzymatic filter binding assay, TrkB; assay type: biochemical; conditions: at a concentration of 10 μM; read-out: percentage inhibition of TrkB
T4 construct: purchased Upstate (KinaseProfiler panel)
Method: as §1

Fes = target: T5, Fes (Homo sapiens, UniProt P07332); test: Upstate KinaseProfiler radio-enzymatic filter binding assay, Fes; assay type: biochemical; conditions: at a concentration of 10 μM; read-out: percentage inhibition of Fes
T5 construct: purchased Upstate (KinaseProfiler panel)
Method: as §1

E255V BCR-Abl = target: T6, E255V BCR-Abl (Homo sapiens, UniProt P00519, E255V); test: Antiproliferative effect on Ba/F3 cells expressing E255V BCR-Abl; assay type: cell-based; conditions: Ba/F3 cells expressing E255V mutant
T6 construct: expressed in transfected cells; host or cells: Ba/F3; the other entry of the earlier key: BCR (P11274, Breakpoint cluster region protein)
Method: as §2, §3

F317L BCR-Abl = target: T7, F317L BCR-Abl (Homo sapiens, UniProt P00519, F317L); test: Antiproliferative effect on Ba/F3 cells expressing F317L BCR-Abl; assay type: cell-based; conditions: Ba/F3 cells expressing F317L mutant
T7 construct: expressed in transfected cells; host or cells: Ba/F3; the other entry of the earlier key: BCR (P11274, Breakpoint cluster region protein)
Method: as §2, §3

G250E BCR-Abl = target: T8, G250E BCR-Abl (Homo sapiens, UniProt P00519, G250E); test: Antiproliferative effect on Ba/F3 cells expressing G250E BCR-Abl; assay type: cell-based; conditions: Ba/F3 cells expressing G250E mutant
T8 construct: expressed in transfected cells; host or cells: Ba/F3; the other entry of the earlier key: BCR (P11274, Breakpoint cluster region protein)
Method: as §2, §3

Bmx = target: T9, Bmx (Homo sapiens, UniProt P51813); test: Upstate KinaseProfiler radio-enzymatic filter binding assay, Bmx; assay type: biochemical; conditions: at a concentration of 10 μM; read-out: percentage inhibition of Bmx
T9 construct: purchased Upstate (KinaseProfiler panel)
T9 sequence (P51813 1-675): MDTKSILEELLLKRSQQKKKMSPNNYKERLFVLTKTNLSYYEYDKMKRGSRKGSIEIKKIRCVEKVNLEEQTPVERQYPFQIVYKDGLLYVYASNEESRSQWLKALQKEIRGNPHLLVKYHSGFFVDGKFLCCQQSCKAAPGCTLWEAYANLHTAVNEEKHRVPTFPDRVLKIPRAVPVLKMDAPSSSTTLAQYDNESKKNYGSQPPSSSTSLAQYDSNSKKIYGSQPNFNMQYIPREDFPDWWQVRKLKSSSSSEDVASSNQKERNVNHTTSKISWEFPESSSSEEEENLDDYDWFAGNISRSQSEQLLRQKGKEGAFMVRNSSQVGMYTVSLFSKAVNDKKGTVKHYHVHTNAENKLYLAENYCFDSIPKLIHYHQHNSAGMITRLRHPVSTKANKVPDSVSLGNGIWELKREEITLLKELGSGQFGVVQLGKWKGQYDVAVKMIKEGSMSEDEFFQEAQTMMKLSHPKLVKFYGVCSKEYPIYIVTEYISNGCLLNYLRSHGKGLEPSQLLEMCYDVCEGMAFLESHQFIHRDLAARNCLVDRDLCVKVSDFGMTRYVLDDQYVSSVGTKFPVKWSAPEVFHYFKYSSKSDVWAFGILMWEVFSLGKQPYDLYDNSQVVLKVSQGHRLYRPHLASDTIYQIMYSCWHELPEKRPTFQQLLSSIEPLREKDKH
Method: as §1

CSK = target: T10, CSK (Homo sapiens, UniProt P41240); test: Upstate KinaseProfiler radio-enzymatic filter binding assay, CSK; assay type: biochemical; conditions: at a concentration of 10 μM; read-out: percentage inhibition of CSK
T10 construct: purchased Upstate (KinaseProfiler panel)
Method: as §1

wild type BCR-Abl = target: T11, wild type BCR-Abl (Homo sapiens, UniProt P00519); test: Antiproliferative effect on Ba/F3 cells expressing wild type BCR-Abl; assay type: cell-based
T11 construct: expressed in transfected cells; host or cells: Ba/F3; the other entry of the earlier key: BCR (P11274, Breakpoint cluster region protein)
Method: as §2, §3

M351T BCR-Abl = target: T12, M351T BCR-Abl (Homo sapiens, UniProt P00519, M351T); test: Antiproliferative effect on Ba/F3 cells expressing M351T BCR-Abl; assay type: cell-based; conditions: Ba/F3 cells expressing M351T mutant
T12 construct: expressed in transfected cells; host or cells: Ba/F3; the other entry of the earlier key: BCR (P11274, Breakpoint cluster region protein)
Method: as §2, §3

B-RAF = B-RAF (Homo sapiens, UniProt P15056); test: B-RAF kinase inhibition assay (IκBα substrate); assay type: biochemical; conditions: 20 μM ATP
Method: Compounds of the invention are tested for their ability to inhibit the activity of B-RAF. The assay is carried out in 384-well MaxiSorp plates (NUNC) with black walls and clear bottom. The substrate, IκBα is diluted in DPBS (1:750) and 15 μL is added to each well. The plates are incubated at 4° C. overnight and washed 3 times with TBST (25 mM Tris, pH 8.0, 150 mM NaCl and 0.05% Tween-20) using the EMBLA plate washer. Plates are blocked by Superblock (15 μL/well) for 3 hours at room temperature, washed 3 times with TBST and pat-dried. Assay buffer containing 20 μM ATP (10 μL) is added to each well followed by 100 nL or 500 nL of compound. B-RAF is diluted in the assay buffer (1 μL into 25 μl) and 10 μL of diluted B-RAF is added to each well (0.4 μg/well). The plates are incubated at room temperature for 2.5 hours. The kinase reaction is stopped by washing the plates 6 times with TBST. Phosph-IκBα (Ser32/36) antibody is diluted in Superblock (1:10,000) and 15 μL is added to each well. The plates are incubated at 4° C. overnight and washed 6 times with TBST. AP-conjugated goat-anti-mouse IgG is diluted in Superblock (1:1,500) and 15 μL is added to each well. Plates are incubated at room temperature for 1 hour and washed 6 times with TBST. […] Plates are read on Acquest or Analyst GT using a Fluorescence Intensity Nanxin BBT anion (505 dichroic mirror).

c-Raf = target: T13, c-Raf (Homo sapiens, UniProt P04049); test: Upstate KinaseProfiler radio-enzymatic filter binding assay, c-Raf; assay type: biochemical; conditions: at a concentration of 10 μM; read-out: percentage inhibition of c-Raf
T13 construct: purchased Upstate (KinaseProfiler panel)
Method: as §1

FGFR3 = target: T14, FGFR3 (Homo sapiens, UniProt P22607); test: Upstate KinaseProfiler radio-enzymatic filter binding assay, FGFR3; assay type: biochemical; conditions: at a concentration of 10 μM; read-out: percentage inhibition of FGFR3
T14 construct: purchased Upstate (KinaseProfiler panel)
Method: as §1

SAPK2α = target: T15, SAPK2α (Homo sapiens, UniProt Q16539); test: Upstate KinaseProfiler radio-enzymatic filter binding assay, SAPK2α; assay type: biochemical; conditions: at a concentration of 10 μM; read-out: percentage inhibition of SAPK2α
T15 construct: purchased Upstate (KinaseProfiler panel)
Method: as §1

MKK6 = target: T16, MKK6 (Homo sapiens, UniProt P52564); test: Upstate KinaseProfiler radio-enzymatic filter binding assay, MKK6; assay type: biochemical; conditions: at a concentration of 10 μM; read-out: percentage inhibition of MKK6
T16 construct: purchased Upstate (KinaseProfiler panel)
T16 sequence (P52564 1-334): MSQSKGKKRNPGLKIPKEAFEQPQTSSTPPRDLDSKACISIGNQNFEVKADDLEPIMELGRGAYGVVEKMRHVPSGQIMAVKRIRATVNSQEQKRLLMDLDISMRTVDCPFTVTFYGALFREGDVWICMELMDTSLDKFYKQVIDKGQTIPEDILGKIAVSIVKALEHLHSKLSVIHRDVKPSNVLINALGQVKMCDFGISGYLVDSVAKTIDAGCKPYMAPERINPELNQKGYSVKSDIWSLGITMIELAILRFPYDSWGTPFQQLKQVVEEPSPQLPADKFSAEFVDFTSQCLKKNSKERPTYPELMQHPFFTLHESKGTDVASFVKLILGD
Method: as §1

T4 sequence (Q16620 32-822): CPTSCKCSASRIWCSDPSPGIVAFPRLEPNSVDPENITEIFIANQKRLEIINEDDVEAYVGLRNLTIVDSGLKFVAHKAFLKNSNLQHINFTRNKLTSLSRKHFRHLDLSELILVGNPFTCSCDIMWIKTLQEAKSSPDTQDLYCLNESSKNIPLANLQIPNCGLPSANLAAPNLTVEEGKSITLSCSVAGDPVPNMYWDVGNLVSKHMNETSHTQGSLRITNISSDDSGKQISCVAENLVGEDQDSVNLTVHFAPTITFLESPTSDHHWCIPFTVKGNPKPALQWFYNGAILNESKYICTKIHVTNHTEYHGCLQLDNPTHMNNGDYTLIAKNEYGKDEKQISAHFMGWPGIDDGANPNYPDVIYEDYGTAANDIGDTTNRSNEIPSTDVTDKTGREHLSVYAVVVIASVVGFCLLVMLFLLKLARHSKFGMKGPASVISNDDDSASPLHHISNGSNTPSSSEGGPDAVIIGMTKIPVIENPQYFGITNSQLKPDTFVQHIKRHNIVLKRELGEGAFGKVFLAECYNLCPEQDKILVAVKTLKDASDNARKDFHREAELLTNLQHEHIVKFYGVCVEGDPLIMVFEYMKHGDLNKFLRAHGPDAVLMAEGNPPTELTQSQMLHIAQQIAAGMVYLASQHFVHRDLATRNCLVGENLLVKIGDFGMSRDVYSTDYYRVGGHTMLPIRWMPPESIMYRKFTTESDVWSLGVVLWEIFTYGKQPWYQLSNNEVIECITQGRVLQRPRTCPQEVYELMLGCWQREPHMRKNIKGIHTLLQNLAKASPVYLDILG
T5 sequence (P07332 whole entry): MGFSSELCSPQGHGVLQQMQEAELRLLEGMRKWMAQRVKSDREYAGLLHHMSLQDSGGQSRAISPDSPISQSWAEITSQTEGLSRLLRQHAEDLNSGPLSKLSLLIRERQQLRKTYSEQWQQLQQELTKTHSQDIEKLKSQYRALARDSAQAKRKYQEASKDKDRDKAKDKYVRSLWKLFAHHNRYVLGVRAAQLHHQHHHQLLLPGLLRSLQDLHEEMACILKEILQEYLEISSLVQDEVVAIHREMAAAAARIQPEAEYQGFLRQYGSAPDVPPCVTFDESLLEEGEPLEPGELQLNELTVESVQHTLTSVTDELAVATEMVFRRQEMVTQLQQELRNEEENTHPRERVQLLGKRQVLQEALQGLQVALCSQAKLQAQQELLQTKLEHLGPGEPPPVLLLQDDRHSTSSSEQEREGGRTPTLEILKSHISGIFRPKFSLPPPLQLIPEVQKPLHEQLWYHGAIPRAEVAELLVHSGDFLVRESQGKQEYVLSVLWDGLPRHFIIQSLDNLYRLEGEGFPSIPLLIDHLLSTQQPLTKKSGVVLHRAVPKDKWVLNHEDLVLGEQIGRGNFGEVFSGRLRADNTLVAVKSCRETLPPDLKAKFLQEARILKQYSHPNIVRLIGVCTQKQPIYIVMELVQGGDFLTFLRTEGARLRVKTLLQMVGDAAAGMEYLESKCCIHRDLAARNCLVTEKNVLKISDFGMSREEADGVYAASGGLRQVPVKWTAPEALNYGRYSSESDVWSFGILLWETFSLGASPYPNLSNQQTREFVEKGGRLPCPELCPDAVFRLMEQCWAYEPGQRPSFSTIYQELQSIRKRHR
T13 sequence (P04049 whole entry): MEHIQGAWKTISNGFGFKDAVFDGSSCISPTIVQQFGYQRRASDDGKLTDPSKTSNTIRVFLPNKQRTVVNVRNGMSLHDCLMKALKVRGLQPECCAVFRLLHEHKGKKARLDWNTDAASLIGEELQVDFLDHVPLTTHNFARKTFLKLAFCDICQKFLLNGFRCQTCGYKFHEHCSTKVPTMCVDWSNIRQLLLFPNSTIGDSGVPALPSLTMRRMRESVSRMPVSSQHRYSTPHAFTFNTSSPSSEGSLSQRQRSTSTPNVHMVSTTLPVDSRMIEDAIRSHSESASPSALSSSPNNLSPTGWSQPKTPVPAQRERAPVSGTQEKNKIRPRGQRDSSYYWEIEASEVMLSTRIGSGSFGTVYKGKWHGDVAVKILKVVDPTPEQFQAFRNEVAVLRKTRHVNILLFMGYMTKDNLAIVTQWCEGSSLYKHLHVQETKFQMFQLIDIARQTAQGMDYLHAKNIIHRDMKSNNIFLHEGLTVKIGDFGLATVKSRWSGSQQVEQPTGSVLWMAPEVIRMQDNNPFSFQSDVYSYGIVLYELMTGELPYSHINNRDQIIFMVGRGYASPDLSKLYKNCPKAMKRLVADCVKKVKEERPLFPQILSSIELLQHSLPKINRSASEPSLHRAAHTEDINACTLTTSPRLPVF
T3 sequence (Q15759 whole entry): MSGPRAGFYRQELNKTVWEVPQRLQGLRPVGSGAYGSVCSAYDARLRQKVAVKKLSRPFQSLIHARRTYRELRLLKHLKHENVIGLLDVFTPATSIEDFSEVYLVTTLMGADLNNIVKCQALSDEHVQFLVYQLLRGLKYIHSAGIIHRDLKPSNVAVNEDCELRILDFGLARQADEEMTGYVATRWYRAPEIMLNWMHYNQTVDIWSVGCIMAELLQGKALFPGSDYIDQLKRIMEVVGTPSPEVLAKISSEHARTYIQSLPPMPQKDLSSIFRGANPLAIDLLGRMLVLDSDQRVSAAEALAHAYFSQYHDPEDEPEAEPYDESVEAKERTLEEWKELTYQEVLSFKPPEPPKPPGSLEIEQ
T1 sequence (P06239 whole entry): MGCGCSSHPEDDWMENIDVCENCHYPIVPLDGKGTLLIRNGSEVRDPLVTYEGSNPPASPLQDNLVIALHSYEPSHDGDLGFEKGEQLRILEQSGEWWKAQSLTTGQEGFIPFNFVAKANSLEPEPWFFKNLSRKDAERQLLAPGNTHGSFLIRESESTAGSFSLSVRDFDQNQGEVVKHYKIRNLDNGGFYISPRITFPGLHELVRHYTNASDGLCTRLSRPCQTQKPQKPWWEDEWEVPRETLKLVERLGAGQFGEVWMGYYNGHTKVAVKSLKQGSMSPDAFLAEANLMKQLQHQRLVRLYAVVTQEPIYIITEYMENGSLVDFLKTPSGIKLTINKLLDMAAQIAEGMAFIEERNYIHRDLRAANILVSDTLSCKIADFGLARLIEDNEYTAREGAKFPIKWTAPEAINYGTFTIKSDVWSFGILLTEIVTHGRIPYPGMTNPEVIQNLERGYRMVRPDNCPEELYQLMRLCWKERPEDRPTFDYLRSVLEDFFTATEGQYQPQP
Chain of B-RAF (P15056 whole entry, species assumed): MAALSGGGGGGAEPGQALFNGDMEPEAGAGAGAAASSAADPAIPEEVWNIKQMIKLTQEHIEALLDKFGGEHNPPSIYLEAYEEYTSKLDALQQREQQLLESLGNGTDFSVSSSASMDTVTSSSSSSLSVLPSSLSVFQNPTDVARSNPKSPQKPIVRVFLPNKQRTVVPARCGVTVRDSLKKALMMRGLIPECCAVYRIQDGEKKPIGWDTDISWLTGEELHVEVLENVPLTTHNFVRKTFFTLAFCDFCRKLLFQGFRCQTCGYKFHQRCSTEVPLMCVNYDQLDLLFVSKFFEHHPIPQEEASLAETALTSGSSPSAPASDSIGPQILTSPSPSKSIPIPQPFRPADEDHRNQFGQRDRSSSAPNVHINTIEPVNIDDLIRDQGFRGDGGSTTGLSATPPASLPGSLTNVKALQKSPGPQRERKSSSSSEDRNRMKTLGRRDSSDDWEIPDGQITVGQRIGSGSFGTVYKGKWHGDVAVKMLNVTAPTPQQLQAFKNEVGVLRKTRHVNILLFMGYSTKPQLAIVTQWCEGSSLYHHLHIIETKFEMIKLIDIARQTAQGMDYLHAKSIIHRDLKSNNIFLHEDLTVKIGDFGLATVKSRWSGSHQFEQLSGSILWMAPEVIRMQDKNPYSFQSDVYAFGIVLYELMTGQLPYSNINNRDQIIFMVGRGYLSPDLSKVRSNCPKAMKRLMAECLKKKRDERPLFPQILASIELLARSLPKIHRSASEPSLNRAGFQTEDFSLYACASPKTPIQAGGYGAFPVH
T15 sequence (Q16539 whole entry): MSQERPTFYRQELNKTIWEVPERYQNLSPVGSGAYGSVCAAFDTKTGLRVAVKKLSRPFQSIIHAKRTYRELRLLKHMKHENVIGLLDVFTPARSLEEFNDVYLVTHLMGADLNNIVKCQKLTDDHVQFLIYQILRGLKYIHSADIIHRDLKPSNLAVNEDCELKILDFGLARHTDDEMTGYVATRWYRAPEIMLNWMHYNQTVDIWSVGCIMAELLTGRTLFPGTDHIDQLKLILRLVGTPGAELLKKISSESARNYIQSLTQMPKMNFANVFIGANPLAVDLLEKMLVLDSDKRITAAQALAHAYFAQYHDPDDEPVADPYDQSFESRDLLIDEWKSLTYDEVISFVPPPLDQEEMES
T14 sequence (P22607 23-806): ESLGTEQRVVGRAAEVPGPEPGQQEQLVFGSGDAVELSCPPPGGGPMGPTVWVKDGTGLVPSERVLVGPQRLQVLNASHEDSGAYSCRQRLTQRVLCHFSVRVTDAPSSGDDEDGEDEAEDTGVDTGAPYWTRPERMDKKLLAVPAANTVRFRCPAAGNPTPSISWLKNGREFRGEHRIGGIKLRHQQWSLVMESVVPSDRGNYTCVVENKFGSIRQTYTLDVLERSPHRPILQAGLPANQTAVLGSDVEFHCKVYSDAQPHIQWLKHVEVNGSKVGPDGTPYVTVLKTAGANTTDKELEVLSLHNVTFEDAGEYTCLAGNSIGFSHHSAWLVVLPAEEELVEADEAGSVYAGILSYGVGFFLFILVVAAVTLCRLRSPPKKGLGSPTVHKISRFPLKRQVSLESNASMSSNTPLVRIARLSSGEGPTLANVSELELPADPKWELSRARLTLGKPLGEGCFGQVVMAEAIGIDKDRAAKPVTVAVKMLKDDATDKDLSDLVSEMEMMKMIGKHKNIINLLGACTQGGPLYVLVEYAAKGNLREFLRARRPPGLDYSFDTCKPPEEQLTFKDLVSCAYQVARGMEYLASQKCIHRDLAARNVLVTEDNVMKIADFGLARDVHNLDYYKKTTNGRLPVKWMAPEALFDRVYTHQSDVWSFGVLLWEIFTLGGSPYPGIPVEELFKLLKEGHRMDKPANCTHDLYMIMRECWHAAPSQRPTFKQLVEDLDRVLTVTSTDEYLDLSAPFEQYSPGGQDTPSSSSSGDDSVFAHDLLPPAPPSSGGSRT

Row | inhibition at 10 µM (Lck) [%] | IC50 (T315I BCR-Abl) [nM] | inhibition at 10 µM (SAPK2β) [%] | inhibition at 10 µM (TrkB) [%] | inhibition at 10 µM (Fes) [%] | IC50 (E255V BCR-Abl) [nM] | IC50 (F317L BCR-Abl) [nM] | IC50 (G250E BCR-Abl) [nM] | inhibition at 10 µM (Bmx) [%] | inhibition at 10 µM (CSK) [%] | IC50 (wild type BCR-Abl) [nM] | IC50 (M351T BCR-Abl) [nM] | IC50 (B-RAF) [nM] | inhibition at 10 µM (c-Raf) [%] | inhibition at 10 µM (FGFR3) [%] | inhibition at 10 µM (SAPK2α) [%] | inhibition at 10 µM (MKK6) [%] | Structure (SMILES)
1 | 95 | 370 | 95 | 100 | 82 | 220 | 50 | 170 | 100 | 90 | 22 | 29 | 32 | 83 | – | – | – | Cc1cn(-c2cc(C(=O)Nc3ccc(C)c(NC(=O)n4ccc5c(Nc6cccc(N(C)C)c6)ncnc54)c3)cc(C(F)(F)F)c2)cn1 [Example 3, 4-(3-Dimethylamino-phenylamino)-pyrrolo[2,3-d]pyrimidine-7-carboxylic acid {2-methyl-5-[3-(4-methyl-imidazol-1-yl)-5-trifluoromethyl-benzoylamino]-phenyl}-amide]
2 | 96 | 115 | 100 | 98 | 98 | 31 | 9 | 47 | 100 | 100 | 5 | 5 | – | 99 | 95 | 100 | 98 | Cc1cn(-c2cc(C(=O)Nc3ccc(C)c(NC(=O)n4ccc5c(Nc6cccc(C(N)=O)c6)ncnc54)c3)cc(C(F)(F)F)c2)cn1 [Example 7, 4-(3-Carbamoyl-phenylamino)-pyrrolo[2,3-d]pyrimidine-7-carboxylic acid {2-methyl-5-[3-(4-methyl-imidazol-1-yl)-5-trifluoromethyl-benzoylamino]-phenyl}-amide]

— patent US7338957B2, “Compounds and compositions as protein kinase inhibitors” (IRM LLC, priority 2003, dated 2008)
